From patent publication US20100125081A1, “NEW COMPOUNDS 574” (ASTRAZENECA AB, priority 2008, published 2010)
Structures can show the parent of a compound that is named as a salt.

Target: T1, human β-Secretase (Homo sapiens, UniProt P56817)
T1 construct: soluble part of the human β-Secretase (AA 1-AA 460); Fc domain of IgG1 (C); made in house
Assay: TR-FRET assay (β-secretase enzyme, sBACE-Fc)
Type: biochemical
Settings: soluble human β-secretase (AA 1-460) Fc fusion, substrate (Europium)CEVNLDAEFK(Qsy7) 100 nM, pH 4.5; unit inferred, nM taken
Procedure: The β-secretase enzyme used in the TR-FRET is prepared as follows:
The cDNA for the soluble part of the human β-Secretase (AA 1-AA 460) was cloned using the ASP2-Fc10-1-IRES-GFP-neoK mammalian expression vector. The gene was fused to the Fc domain of IgG1 (affinity tag) and stably cloned into HEK 293 cells.
The enzyme (truncated form) was diluted to 6 μg/mL (stock 1.3 mg/mL) and the substrate (Europium)CEVNLDAEFK(Qsy7) to 200 nM (stock 120 μM) in reaction buffer (NaAcetate, chaps, triton x-100, EDTA pH4.5). The robotic systems Biomek FX and Velocity 11 were used for all liquid handling and the enzyme and substrate solutions were kept on ice until they were placed in the robotic system. Enzyme (9 μl) was added to the plate then 1 μl of compound in dimethylsulphoxide was added, mixed and pre-incubated for 10 minutes. Substrate (10 μl) was then added, mixed and the reaction proceeded for 15 minutes at room temperature. The reaction was stopped with the addition of Stop solution (7 μl, NaAcetate, pH 9). The fluorescence of the product was measured on a Victor II plate reader with an excitation wavelength of 340 nm and an emission wavelength of 615 nm. The assay was performed in a Costar 384 well round bottom, low volume, non-binding surface plate (Corning #3676). The final concentration of the enzyme was 2.7 μg/ml; the final concentration of substrate was 100 nM (Km of ˜250 nM). The dimethylsulphoxide control, instead of test compound, defined the 100% activity level and 0% activity was defined by wells lacking enzyme (replaced with reaction buffer).

T1 sequence (P56817 22-460): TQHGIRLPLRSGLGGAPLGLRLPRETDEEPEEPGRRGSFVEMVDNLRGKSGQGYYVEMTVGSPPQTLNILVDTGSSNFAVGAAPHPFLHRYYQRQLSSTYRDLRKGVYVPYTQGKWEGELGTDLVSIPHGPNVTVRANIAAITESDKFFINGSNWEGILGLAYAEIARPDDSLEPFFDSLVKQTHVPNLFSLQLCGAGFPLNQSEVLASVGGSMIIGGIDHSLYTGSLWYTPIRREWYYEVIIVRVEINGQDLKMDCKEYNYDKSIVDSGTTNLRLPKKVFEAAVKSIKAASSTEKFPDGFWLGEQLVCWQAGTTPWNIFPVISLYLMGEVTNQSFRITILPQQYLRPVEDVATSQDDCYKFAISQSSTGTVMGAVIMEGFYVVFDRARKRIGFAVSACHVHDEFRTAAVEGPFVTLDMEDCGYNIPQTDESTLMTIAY

`COc1ccc(C2(c3cccc(-c4cnccn4)c3)N=C(N)c3ncccc32)cc1C(F)F` (stereo not shown) [Example 23, 5-(3-(difluoromethyl)-4-methoxyphenyl)-5-(3-(pyrazin-2-yl)phenyl)-5H-pyrrolo[3,4-b]pyridin-7-amine] and `COc1ccc(C2(c3cccc(-c4cncnc4)c3)N=C(N)c3ncccc32)cc1C(F)F` (stereo not shown) [Example 24, 5-(3-(Difluoromethyl)-4-methoxyphenyl)-5-(3-(pyrimidin-5-yl)phenyl)-5H-pyrrolo[3,4-b]pyridin-7-amine] are within 1.5-fold of each other in IC50: 288 nM for the first, 212 nM for the second.

Compared with `Cc1cc(C2(c3ccnc(-c4cncnc4)c3)N=C(N)c3ncccc32)cc(C2CC2)c1OC(F)F` (stereo not shown) [Example 30, 5-(3-Cyclopropyl-4-difluoromethoxy-5-methyl-phenyl)-5-(2-pyrimidin-5-yl-pyridin-4-yl)-5H-pyrrolo[3,4-b]pyridin-7-ylamine], `Cc1cc(C2(c3cccc(-c4cncnc4)c3)N=C(N)c3ncccc32)cc(C)c1OC(F)F` (stereo not shown) [Example 12, 5-(4-(Difluoromethoxy)-3,5-dimethylphenyl)-5-(3-(pyrimidin-5-yl)phenyl)-5H-pyrrolo[3,4-b]pyridin-7-amine] is 2.5-fold lower in IC50: 119 nM for the first, 47 nM for the second.

First: NC1=NC(c2cccc(-c3cncnc3)c2)(c2ccnc(C(F)(F)F)c2)c2cccnc21 (single isomer, unassigned) [25, Isomer 2]
Second: NC1=NC(c2cccc(-c3cncnc3)c2)(c2ccnc(OCC(F)(F)F)c2)c2cccnc21 (stereo not shown) [Example 16, 5-(3-(Pyrimidin-5-yl)phenyl)-5-(2-(2,2,2-trifluoroethoxy)pyridin-4-yl)-5H-pyrrolo[3,4-b]pyridin-7-amine 0.2 acetic acid]
The IC50 of the first is 9.1-fold lower: 176 nM for the first, 1600 nM for the second. The first is the more potent here.

Going from `COc1ccc(C2(c3cccc(-c4cncnc4)c3)N=C(N)c3ncc(C)cc32)cc1` (stereo not shown) [Example 11, 5-(4-Methoxyphenyl)-3-methyl-5-(3-(pyrimidin-5-yl)phenyl)-5H-pyrrolo[3,4-b]pyridin-7-amine] to `NC1=NC(c2cccc(-c3cncnc3)c2)(c2ccnc(C(F)(F)F)c2)c2cccnc21` (single isomer, unassigned) [25, Isomer 1], the IC50 rises from 2120 nM to greater than 31600 nM. The first is the more potent here.

Going from `COc1c(F)cc(C2(c3ccc(F)c(-c4cncnc4)c3)N=C(N)c3ncccc32)cc1F` (stereo not shown) [Example 6, 5-(3,5-Difluoro-4-methoxyphenyl)-5-(4-fluoro-3-(pyrimidin-5-yl)phenyl)-5H-pyrrolo[3,4-b]pyridin-7-amine] to `COc1c(C)cc(C2(c3cccc(-c4cnccn4)c3)N=C(N)c3ncccc32)cc1F` (stereo not shown) [Example 15, 5-(3-Fluoro-4-methoxy-5-methylphenyl)-5-(3-(pyrazin-2-yl)phenyl)-5H-pyrrolo[3,4-b]pyridin-7-amine trifluoroacetic acid salt], the IC50 falls from 156 nM to 96 nM (1.6-fold). The second is the more potent here.

First: Cc1cc(C2(c3cccc(C#N)c3)N=C(N)c3ncccc32)cc(C2CC2)c1OC(F)F (stereo not shown) [Example 32, 3-[7-Amino-5-(3-cyclopropyl-4-difluoromethoxy-5-methyl-phenyl)-5H-pyrrolo[3,4-b]pyridin-5-yl]-benzonitrile]
Second: Cc1cc(C2(c3cccc(-c4cncc(C#N)c4)c3)N=C(N)c3ncccc32)cc(C)n1 (stereo not shown) [Example 5, 5-(3-(7-Amino-5-(2,6-dimethylpyridin-4-yl)-5H-pyrrolo[3,4-b]pyridin-5-yl)phenyl)nicotinonitrile]
The IC50 of the first is 39-fold lower: 61 nM for the first, 2400 nM for the second.

For `NC1=NC(c2cccc(-c3cncnc3)c2)(c2ccnc(C(F)(F)F)c2)c2cccnc21` (stereo not shown) [Example 2, 5-(3-(pyrimidin-5-yl)phenyl)-5-(2-(trifluoromethyl)pyridin-4-yl)-5H-pyrrolo[3,4-b]pyridin-7-amine], the IC50 was 350 nM.
